Drug uptake and Ratio data for two molecules are collected here from ChEMBL document CHEMBL2086228, “Radiosynthesis and in vivo tumor uptake of 2-deoxy-2-[(18)F]fluoro-myo-inositol” (Bioorg Med Chem Lett, 2012).

Data set [1] concerns Urinary bladder. In words: Drug uptake in bladder of athymic nude BALB/c mouse xenografted with human MDA-MB-231 cells at 3 to 3.7 MBq, iv at 30 to 60 mins by PET scanning analysis. It is filed as ADME, organism-based. The note with it: in vivo. In general terms: In xenograft studies the graft and the host belong to different species.
Data set [2] relates to Heart. In words: Drug uptake in heart of athymic nude BALB/c mouse xenografted with human MDA-MB-231 cells at 3 to 3.7 MBq, iv at 30 to 60 mins by PET scanning analysis. The data set is classed as ADME, organism-based. The settings on record: in vivo.
Data set [3] can be described thus: Drug uptake in tumor of human MDA-MB-231 cells xenografted athymic nude BALB/c mouse at 3 to 3.7 MBq, iv up to 10 mins by PET scanning analysis. It is filed as ADME, organism-based, Neoplasm. The note with it: in vivo.
Data set [4] can be described thus: Drug uptake in tumor of human MDA-MB-231 cells xenografted athymic nude BALB/c mouse at 3 to 3.7 MBq, iv up to 60 mins by PET scanning analysis. The data set is classed as ADME, organism-based, Neoplasm. The note with it: in vivo, 1 h.
The subject of data set [5] is Kidney. Put plainly: Drug uptake in kidney of athymic nude BALB/c mouse xenografted with human MDA-MB-231 cells at 3 to 3.7 MBq, iv up to 60 mins by PET scanning analysis. It is filed as ADME, organism-based. The settings on record: in vivo, 1 h.
The subject of data set [6] is Nucleic Acid. Put plainly: Ratio of drug level in liver to blood in athymic nude BALB/c mouse xenografted with human MDA-MB-231 cells at 3 to 3.7 MBq, iv after 60 mins by gamma counting. The data set is classed as ADME, organism-based. The settings on record: other tissue, 1 h.

Each structure is given as a SMILES string.

As for `O[C@@H]1[C@@H](O)[C@H](O)[C@H]([18F])[C@H](O)[C@H]1O`, the Drug uptake entry in data set [1], in data set [2], in data set [3], in data set [4] and in data set [5] was “Active” each time. Besides, in data set [6], the Ratio is 1.7.
Regarding `O[C@@H]1[C@@H](O)[C@H](O)[C@@H]([18F])[C@H](O)[C@H]1O`, the Drug uptake result in data set [3] and in data set [4] was “Active” in each case. In data set [6], the Ratio came to 1.5.
